These results are taken from patent US8198273B2, “Compounds and methods for kinase modulation, and indications therefor” (Plexxikon Inc., priority 2009, dated 2012).

Data set [1] concerns SKMEL2 melanoma cells (Ras mutation). The data set is described as follows: SKMEL2 cell growth inhibition (ATPlite). The conditions noted are these: Homo sapiens, SK-MEL-2, 72 h; SKMEL2, 3 days incubation. It counts as cell-based. The procedure, abridged:
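SKMEL2 cells seeded at 2,000 per well overnight, then exposed to an 8-point 1:3 compound titration (top 10 μM final) for 3 days at 37 °C. ATPlite luminescence used as a measure of cell number to derive IC50.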
(In general: Cellular ATP, detected with luciferase, serves as a proxy for viable cell number.)

The next data set concerns the target CYP2D6 (Homo sapiens, UniProt P10635). Kind of data set: CYP2D6 inhibition (fluorescent substrate). The settings on record: CYP2D6, AMMC substrate; read-out: Cyp IC50 2D6. It counts as in vitro ADME. The procedure, abridged:
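IC50 values come from plotting product fluorescence against compound concentration; inhibition lowers formation of the fluorescent metabolite. Ten-point twofold dilutions in co-factor mix were held 10 minutes at 37 °C before the enzyme reaction, also run at 37 °C.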

A further data set addresses B-Raf (Homo sapiens, UniProt P15056). Kind of data set: B-Raf biochemical kinase inhibition (AlphaScreen, biotin-MEK1 substrate). The settings on record: 100 μM ATP. The procedure, abridged:
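IC50 derived from AlphaScreen signal plotted against compound concentration. Final ATP 100 μM; 3 h incubation at room temperature. Eight-point 3-fold dilution series prepared from a 0.1 mM DMSO stock.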
For orientation: In Alpha technology, singlet oxygen from a donor bead excites a nearby acceptor bead.

A further data set concerns the target CYP3A4(BQ) (Homo sapiens, UniProt P08684). The data set is described as follows: CYP3A4(BQ) inhibition (fluorescent substrate). The conditions noted are these: read-out: Cyp IC50 3A4(BQ). Type of data set: in vitro ADME. The procedure, abridged: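 Inhibition was followed as loss of fluorescent metabolite from a known substrate, with compound in co-factor mix as a 10-point 1:1 serial dilution (100 mM DMSO stock).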

SMILES strings stand for the structures.

Chain of CYP3A4(BQ) (P08684 whole entry): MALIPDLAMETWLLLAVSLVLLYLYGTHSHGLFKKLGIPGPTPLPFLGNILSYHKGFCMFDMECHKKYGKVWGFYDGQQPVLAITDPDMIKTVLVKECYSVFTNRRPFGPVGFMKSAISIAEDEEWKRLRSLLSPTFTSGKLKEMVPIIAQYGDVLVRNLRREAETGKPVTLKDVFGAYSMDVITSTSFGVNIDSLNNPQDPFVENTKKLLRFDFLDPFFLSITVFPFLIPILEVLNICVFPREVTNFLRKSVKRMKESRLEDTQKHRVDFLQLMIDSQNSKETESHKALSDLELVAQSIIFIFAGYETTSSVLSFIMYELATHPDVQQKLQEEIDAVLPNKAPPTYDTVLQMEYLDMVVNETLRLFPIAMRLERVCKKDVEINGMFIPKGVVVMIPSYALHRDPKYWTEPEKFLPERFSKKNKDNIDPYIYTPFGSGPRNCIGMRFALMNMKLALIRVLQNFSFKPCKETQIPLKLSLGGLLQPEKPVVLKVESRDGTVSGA
Chain of CYP2D6 (P10635 whole entry): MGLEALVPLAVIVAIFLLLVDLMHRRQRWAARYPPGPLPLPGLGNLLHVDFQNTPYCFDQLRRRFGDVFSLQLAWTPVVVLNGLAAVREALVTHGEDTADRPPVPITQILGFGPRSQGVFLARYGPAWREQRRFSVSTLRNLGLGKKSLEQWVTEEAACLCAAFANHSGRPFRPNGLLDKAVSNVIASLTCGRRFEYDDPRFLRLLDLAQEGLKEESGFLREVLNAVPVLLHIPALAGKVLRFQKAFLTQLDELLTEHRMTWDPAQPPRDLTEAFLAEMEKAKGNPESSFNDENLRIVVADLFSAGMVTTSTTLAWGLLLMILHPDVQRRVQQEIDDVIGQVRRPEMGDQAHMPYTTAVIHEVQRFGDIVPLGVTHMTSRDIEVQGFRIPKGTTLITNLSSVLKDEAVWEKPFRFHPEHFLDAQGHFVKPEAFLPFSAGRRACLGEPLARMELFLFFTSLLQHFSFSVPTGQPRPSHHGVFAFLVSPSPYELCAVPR
Chain of B-Raf (P15056 whole entry): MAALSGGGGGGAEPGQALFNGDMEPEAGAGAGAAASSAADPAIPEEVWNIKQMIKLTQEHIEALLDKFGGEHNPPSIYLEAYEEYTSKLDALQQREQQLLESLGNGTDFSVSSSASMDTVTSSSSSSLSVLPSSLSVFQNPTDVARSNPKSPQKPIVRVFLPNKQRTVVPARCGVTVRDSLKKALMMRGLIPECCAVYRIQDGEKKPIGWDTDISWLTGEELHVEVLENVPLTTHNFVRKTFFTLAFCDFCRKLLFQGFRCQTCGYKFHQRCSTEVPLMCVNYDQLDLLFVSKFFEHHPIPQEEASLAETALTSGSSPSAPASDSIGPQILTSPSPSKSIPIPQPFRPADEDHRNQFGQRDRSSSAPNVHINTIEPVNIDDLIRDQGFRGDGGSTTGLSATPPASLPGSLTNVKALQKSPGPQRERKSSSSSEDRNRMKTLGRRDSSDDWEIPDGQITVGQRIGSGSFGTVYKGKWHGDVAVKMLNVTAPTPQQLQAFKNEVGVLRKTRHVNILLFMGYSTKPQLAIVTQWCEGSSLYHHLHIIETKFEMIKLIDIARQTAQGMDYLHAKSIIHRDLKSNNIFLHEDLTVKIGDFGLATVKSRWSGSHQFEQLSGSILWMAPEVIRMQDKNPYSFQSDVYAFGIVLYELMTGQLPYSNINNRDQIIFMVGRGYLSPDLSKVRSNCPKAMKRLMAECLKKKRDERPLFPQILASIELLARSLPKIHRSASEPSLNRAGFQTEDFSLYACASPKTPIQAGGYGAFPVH

With `Cc1cnc2[nH]cc(C(=O)c3c(F)ccc(NS(=O)(=O)c4cc(F)ccc4F)c3F)c2c1` [P-2015, N-[2,4-Difluoro-3-(5-methyl-1H-pyrrolo[2,3-b]pyridine-3-carbonyl)-phenyl]-2,5-difluoro-benzenesulfonamide], the IC50 – broadly, the midpoint of a concentration-inhibition curve – in data set [1] was above 10 µM; on CYP2D6, above 10 µM; against B-Raf, below 0.1 µM; at CYP3A4(BQ) it was above 10 µM.

On to `COc1ccnc2[nH]cc(C(=O)c3c(F)ccc(NS(=O)(=O)c4c(F)cccc4F)c3F)c12` [P-2031, N-[2,4-Difluoro-3-(4-methoxy-1H-pyrrolo[2,3-b]pyridine-3-carbonyl)-phenyl]-2,6-difluoro-benzenesulfonamide], for which the IC50 in data set [1] was above 10 µM; at CYP2D6, above 10 µM; against B-Raf it was below 1 µM; on CYP3A4(BQ) it was above 10 µM.

In the case of `CCCS(=O)(=O)Nc1ccc(F)c(C(=O)c2c[nH]c3ncc(-c4ccc(OCCCN(C)C)nc4)cc23)c1F` [P-2178, Propane-1-sulfonic acid (3-{5-[6-(3-dimethylamino-propoxy)-pyridin-3-yl]-1H-pyrrolo[2,3-b]pyridine-3-carbonyl}-2,4-difluoro-phenyl)-amide], the IC50 is below 5 µM in data set [1], above 10 µM at CYP2D6, below 0.01 µM on B-Raf and below 5 µM on CYP3A4(BQ).

With `N#Cc1cnc2[nH]cc(C(=O)c3cccc(NS(=O)(=O)c4cccc(F)c4)c3F)c2c1` [P-2053, N-[3-(5-Cyano-1H-pyrrolo[2,3-b]pyridine-3-carbonyl)-2-fluoro-phenyl]-3-fluoro-benzenesulfonamide], the IC50 was above 10 µM in data set [1], above 10 µM on CYP2D6, below 0.01 µM against B-Raf and above 10 µM at CYP3A4(BQ).

`O=C(c1c(F)ccc(NS(=O)(=O)c2c(F)cccc2F)c1F)c1c[nH]c2nccc(Cl)c12` [P-2033, N-[3-(4-Chloro-1H-pyrrolo[2,3-b]pyridine-3-carbonyl)-2,4-difluoro-phenyl]-2,6-difluoro-benzenesulfonamide]: the half-maximal inhibitory concentration (IC50) in data set [1] is above 10 µM; on CYP2D6, above 10 µM; against B-Raf it was below 0.1 µM; on CYP3A4(BQ), above 10 µM.

For `N#Cc1ccnc2[nH]cc(C(=O)c3c(F)ccc(NS(=O)(=O)c4cc(F)ccc4F)c3F)c12` [P-2036, N-[3-(4-Cyano-1H-pyrrolo[2,3-b]pyridine-3-carbonyl)-2,4-difluoro-phenyl]-2,5-difluoro-benzenesulfonamide], the IC50 in data set [1] was above 10 µM; at CYP2D6, above 10 µM; against B-Raf it was below 0.01 µM; on CYP3A4(BQ), above 10 µM.

Take `COc1ccnc2[nH]cc(C(=O)c3c(F)ccc(NS(=O)(=O)c4cccnc4)c3F)c12` [P-2073, Pyridine-3-sulfonic acid [2,4-difluoro-3-(4-methoxy-1H-pyrrolo[2,3-b]pyridine-3-carbonyl)-phenyl]-amide]: the IC50 in data set [1] is above 10 µM; on CYP2D6, above 10 µM; against B-Raf it was below 0.1 µM; at CYP3A4(BQ) it was below 5 µM.

In the case of `N#Cc1cnc2[nH]cc(C(=O)c3cccc(NS(=O)(=O)c4ccccc4F)c3F)c2c1` [P-2051, N-[3-(5-Cyano-1H-pyrrolo[2,3-b]pyridine-3-carbonyl)-2-fluoro-phenyl]-2-fluoro-benzenesulfonamide], the IC50 is above 10 µM in data set [1], above 10 µM at CYP2D6, below 0.1 µM at B-Raf and above 10 µM at CYP3A4(BQ).

Regarding `CCCS(=O)(=O)Nc1ccc(F)c(C(=O)c2c[nH]c3ncc(-c4cnn(CCN5CCOCC5)c4)cc23)c1F` [P-2177, Propane-1-sulfonic acid (2,4-difluoro-3-{5-[1-(2-morpholin-4-yl-ethyl)-1H-pyrazol-4-yl]-1H-pyrrolo[2,3-b]pyridine-3-carbonyl}-phenyl)-amide], the IC50 is below 10 µM in data set [1], above 10 µM on CYP2D6, below 0.01 µM on B-Raf and above 10 µM at CYP3A4(BQ).
